Laboratory results published in article PMC4556830, “The Effect of MGCD0103 on CYP450 Isoforms Activity of Rats by Cocktail Method” (BioMed Research International, 2015).

Columns and labels:
CYP1A2 = target: T1, CYP1A2 (Rattus norvegicus, UniProt P04799); assay: Cocktail method, phenacetin probe: effect of MGCD0103 on CYP1A2 activity; format: in vivo; conditions: 7-day intragastric MGCD0103 20, 40, 80 mg/kg
T1 construct: we investigated the effects of 7-day intragastric administration of MGCD0103 on the activity of CYP enzymes in vivo; from tissue; host or cells: living rats (in vivo)
T1 sequence (P04799 1-513): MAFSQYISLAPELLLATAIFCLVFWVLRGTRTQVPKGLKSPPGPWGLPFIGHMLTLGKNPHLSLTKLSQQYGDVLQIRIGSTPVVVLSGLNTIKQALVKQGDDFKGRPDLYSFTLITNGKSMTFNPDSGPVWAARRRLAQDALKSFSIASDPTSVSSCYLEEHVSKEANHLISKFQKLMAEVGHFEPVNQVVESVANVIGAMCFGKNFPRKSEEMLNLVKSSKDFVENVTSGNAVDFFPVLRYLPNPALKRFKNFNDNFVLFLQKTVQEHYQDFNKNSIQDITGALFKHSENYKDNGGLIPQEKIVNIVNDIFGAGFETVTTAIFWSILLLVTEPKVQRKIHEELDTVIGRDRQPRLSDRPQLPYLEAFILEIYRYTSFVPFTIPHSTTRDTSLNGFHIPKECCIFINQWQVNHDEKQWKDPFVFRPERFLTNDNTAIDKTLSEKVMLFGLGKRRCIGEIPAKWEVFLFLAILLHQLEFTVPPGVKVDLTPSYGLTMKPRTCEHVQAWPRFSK
Protocol: (§1) Forty rats (220 ± 20 g) were randomly divided into four different dosages of MGCD0103 groups (Low group, Medium group, High group, and control group with 10 rats in each group). MGCD0103 was dissolved in corn oil as suspension at three different concentrations (20, 40, and 80 mg/mL). Three different MGCD0103 groups (Low group, Medium group, and High group) were respectively given MGCD0103 20, 40, and 80 mg/kg one time by intragastric administration at every morning and last for 7 days. Control group were given saline by same administration method.
(§2) Blood (0.3 mL) samples were collected into heparinized 1.5 mL polythene tubes from the tail vein at 0.0833, 0.5, 1, 2, 3, 4, 6, 8, 12, 24, and 48 h after intragastric administration of six probe drugs. 100 μL of plasma was obtained from blood sample after centrifugation at 4000 g for 10 min. In a 1.5 mL centrifuge tube, 200 μL of acetonitrile (containing 50 ng/mL IS) was added into 100 μL of collected plasma sample. After vortex-mixing for 1.0 min, the sample was centrifuged at 13000 g for 15 min. Then supernatant (2 μL) was injected into the UPLC-MS/MS system for analysis.
(§3) Concentration of plasma probe drugs versus time was analyzed by Version 3.0 Data Analysis System (Wenzhou Medical University, China). The main pharmacokinetic parameters of the MGCD0103 group and control group were analyzed by SPSS l8.0 statistical software.

CYP3A2 = target: T2, CYP3A2 (Rattus norvegicus, UniProt P05183); assay: Cocktail method, testosterone probe: effect of MGCD0103 on CYP3A2 activity; format: in vivo; conditions: 7-day intragastric MGCD0103 20, 40, 80 mg/kg
T2 construct: we investigated the effects of 7-day intragastric administration of MGCD0103 on the activity of CYP enzymes in vivo; from tissue; host or cells: living rats (in vivo)
T2 sequence (P05183 1-504): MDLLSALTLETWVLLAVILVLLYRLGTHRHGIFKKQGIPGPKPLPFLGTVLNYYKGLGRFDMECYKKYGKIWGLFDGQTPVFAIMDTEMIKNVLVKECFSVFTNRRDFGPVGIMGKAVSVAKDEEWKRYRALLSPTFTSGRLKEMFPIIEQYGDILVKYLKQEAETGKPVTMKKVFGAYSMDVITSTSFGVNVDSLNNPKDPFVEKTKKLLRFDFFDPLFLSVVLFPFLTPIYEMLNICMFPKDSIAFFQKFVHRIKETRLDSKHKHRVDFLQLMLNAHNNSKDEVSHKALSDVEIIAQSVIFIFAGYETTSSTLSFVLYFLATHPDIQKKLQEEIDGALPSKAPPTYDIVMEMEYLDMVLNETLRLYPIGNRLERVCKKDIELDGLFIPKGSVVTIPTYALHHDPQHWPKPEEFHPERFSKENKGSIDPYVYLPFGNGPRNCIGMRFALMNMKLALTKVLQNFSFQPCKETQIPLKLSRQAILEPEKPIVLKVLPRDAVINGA
Protocol: as §1, §2, §3

CYP2B1 = target: T3, CYP2B1 (Rattus norvegicus, UniProt P00176); assay: Cocktail method, bupropion probe: effect of MGCD0103 on CYP2B1 activity; format: in vivo; conditions: 7-day intragastric MGCD0103 20, 40, 80 mg/kg
T3 construct: we investigated the effects of 7-day intragastric administration of MGCD0103 on the activity of CYP enzymes in vivo; from tissue; host or cells: living rats (in vivo)
T3 sequence (P00176 1-491): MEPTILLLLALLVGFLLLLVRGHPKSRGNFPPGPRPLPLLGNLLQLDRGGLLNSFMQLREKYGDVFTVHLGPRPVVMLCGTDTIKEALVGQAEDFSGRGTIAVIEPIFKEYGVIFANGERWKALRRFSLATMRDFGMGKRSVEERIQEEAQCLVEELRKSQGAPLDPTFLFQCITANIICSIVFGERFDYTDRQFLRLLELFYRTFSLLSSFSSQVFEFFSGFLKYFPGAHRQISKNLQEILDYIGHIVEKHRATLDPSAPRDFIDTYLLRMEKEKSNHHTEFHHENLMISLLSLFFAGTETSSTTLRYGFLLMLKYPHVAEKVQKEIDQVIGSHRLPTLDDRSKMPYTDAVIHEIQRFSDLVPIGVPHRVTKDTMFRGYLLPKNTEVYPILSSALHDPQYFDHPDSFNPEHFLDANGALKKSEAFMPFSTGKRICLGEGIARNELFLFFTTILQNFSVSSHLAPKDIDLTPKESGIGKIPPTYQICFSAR
Protocol: as §1, §2, §3

liver = assay: Liver histopathology (HE staining) after MGCD0103; format: in vivo, rat
Protocol: After pharmacokinetic properties analysis, rats were deeply anesthetized with 10% chloral hydrate (i.p., […]). The livers of control group and MGCD0103 treated groups were rapidly isolated and immersed in freshly prepared 4% w/v formaldehyde (0.1 M phosphate buffer, pH 7.2) for 48 h and then embedded in paraffin. Then 5 μm thick histologic sections were prepared and stained with routine HE method (hematoxylin and eosin). The morphological changes of liver were observed under light microscope.

CYP2D4 = target: T4, CYP2D4 (Rattus norvegicus, UniProt Q64680); assay: Cocktail method, metoprolol probe: effect of MGCD0103 on CYP2D4 activity; format: in vivo; conditions: 7-day intragastric MGCD0103 20, 40, 80 mg/kg
T4 construct: we investigated the effects of 7-day intragastric administration of MGCD0103 on the activity of CYP enzymes in vivo; from tissue; host or cells: living rats (in vivo)
T4 sequence (Q64680 1-500): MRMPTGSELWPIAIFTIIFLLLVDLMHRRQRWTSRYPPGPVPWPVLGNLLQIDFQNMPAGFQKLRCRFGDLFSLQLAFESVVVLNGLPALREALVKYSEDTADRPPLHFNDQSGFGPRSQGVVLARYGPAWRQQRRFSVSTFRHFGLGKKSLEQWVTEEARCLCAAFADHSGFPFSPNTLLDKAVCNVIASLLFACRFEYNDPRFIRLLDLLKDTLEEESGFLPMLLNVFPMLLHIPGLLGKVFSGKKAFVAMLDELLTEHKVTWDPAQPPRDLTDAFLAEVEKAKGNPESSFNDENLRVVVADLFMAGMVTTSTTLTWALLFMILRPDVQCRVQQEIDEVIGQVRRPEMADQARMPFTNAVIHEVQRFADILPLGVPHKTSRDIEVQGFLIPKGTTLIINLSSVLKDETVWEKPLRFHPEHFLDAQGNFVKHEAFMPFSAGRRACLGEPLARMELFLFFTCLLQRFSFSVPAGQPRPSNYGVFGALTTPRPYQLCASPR
Protocol: as §1, §2, §3

CYP2C11 = assay: Cocktail method, tolbutamide probe: effect of MGCD0103 on CYP2C11 activity; format: in vivo, rat
Protocol: as §1, §2, §3

Nc1ccccc1NC(=O)c1ccc(CNc2nccc(-c3cccnc3)n2)cc1 [MGCD0103, Mocetinostat] was tested, and the “effect on activity of CYP1A2 enzyme” value (CYP1A2) was “not able to induce or inhibit”, the “effect on activity of CYP3A2 enzyme” value (CYP3A2) was “not able to induce or inhibit” and the “effect on activity of CYP2B1 enzyme” value (CYP2B1) was “not able to induce or inhibit”. For the same compound, the “hepatotoxicity (pathological changes of liver)” value (liver; 20, 40, 80 mg/kg i.g. 7 days, probe drugs also given) was “hepatotoxic and its toxicity is dose-dependent”, the “morphological changes of liver” value (liver; high dose group, 80 mg/kg i.g. 7 days) was “liver cells with steatosis and small, atrophy, hyperchromatic karyopyknosis” and the “morphological changes of liver” value (liver; low dose group, 20 mg/kg i.g. 7 days) was “liver cells become slightly edematous”. For the same compound, the “morphological changes of liver” value (liver; middle dose group, 40 mg/kg i.g. 7 days) was “liver cells experienced extensive fatty changes”, the “effect on activity of CYP2D4 enzyme” value (CYP2D4) was “not able to induce or inhibit” and the “effect on metabolism of tolbutamide” value (CYP2C11; 7-day intragastric administration of MGCD0103, high dosage (80 mg/kg), rat) was “slightly induces”. The “effect on activities of CYP2C11” value (CYP2C11; continuous 7-day intragastric administration of MGCD0103, rats) was “slightly induces”.
